Results from US20250302798A1, “STING INHIBITORS AND USE THEREOF” (CARMEL HAIFA UNIVERSITY ECONOMIC CORPORATION LTD., priority 2022, published 2025).
Entries after “also recorded” stand apart in the source; their conditions may differ.

Columns and labels:
STING [1] = target: T1, STING (Homo sapiens, UniProt Q86WV6); experiment: Cytokine expression and STING signaling in PMA-differentiated U937 macrophages; format: cell-based; settings: 50 nM, compared with c-GAMP 1 μg/ml
T1 construct: endogenous in cells; host or cells: U937 cells differentiated with PMA
Protocol: FIGS. 8A-8G include graphs and an image showing that compound 2.1 activates cytokine expression and STING signaling in human macrophages in a similar fashion to cGAMP. Human monocytes of the U937 cell line were treated with phorbol 12-myristate 13-acetate (PMA; 50 ng/ml) for 48 hours. Then, differentiated macrophages (4×10^6 cells) were treated with c-di-GMP (10 μg/ml), c-GAMP (1 μg/ml), compound 2.1 (50 nM) or vehicle for 8 (8A-8F) or 2 (8G) hours. Cells (8A-8D, and 8G) or culture supernatants (8E-8F), were collected and analyzed by RT-PCR, ELISA, and immunoblotting for: TNFα (8A), IL-6 (8B), IL-10 (8C), IFN-β (8D), IL-10 (8E), and TNFα (8F), or STING-IFN-β-RGS2 pathway proteins and actin as a loading control (8G). Results are representative mean±SEM from 3 experiments. One-way ANOVA, and Tukey HSD test ** P≤0.01, P<0.001, **** P≤0.0001.

STING [2] = target: T2, STING (Mus musculus, UniProt Q3TBT3); experiment: Cytokine secretion (ELISA) from DMXAA-activated splenocytes; format: cell-based, C57BL/6 mice; design: Splenocytes were recovered from C57BL/6 WT female mice; endogenous in cells; host or cells: primary splenocytes of C57BL/6 mice
T2 sequence (Q3TBT3 1-378): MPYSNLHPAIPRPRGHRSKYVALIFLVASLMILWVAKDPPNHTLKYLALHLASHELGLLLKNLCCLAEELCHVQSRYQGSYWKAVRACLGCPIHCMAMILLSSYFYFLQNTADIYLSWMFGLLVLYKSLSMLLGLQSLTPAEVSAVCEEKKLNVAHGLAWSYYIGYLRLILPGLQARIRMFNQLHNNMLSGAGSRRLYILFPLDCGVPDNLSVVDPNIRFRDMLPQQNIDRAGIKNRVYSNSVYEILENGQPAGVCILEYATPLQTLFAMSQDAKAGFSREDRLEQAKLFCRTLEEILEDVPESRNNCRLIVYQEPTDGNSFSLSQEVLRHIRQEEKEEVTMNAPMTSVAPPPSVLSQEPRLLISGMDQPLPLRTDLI
Protocol: FIGS. 1A-1B include bar graphs showing that Cluster 1 and 9 inhibit tumor necrosis factor alpha (TNFα) while only cluster 1 promotes IL-10 secretion from resting splenocytes activated by the selective STING agonist DMXAA. Splenocytes were recovered from C57BL/6 WT or STING^−/− female mice and were incubated (1×10^6 cells in 0.5 mL of culture media) overnight with a premade mixture of the individual compounds in each cluster (5-500 nM) or vehicle, and DMXAA (10 μM). Next, culture supernatants were collected and TNFα(1A) or IL-10 (1B) levels were determined by standard enzyme-linked immunosorbent assay ELISA (Biolegend).
FIGS. 2A-2D include graphs showing that compounds 5.9 and 7.9 inhibit TNFα and IL-10 secretion from DMXAA-activated splenocytes. Splenocytes were recovered from C57BL/6 WT female mice and incubated (1×10^6 cells in 0.5 mL of culture media) overnight with the individual compounds from cluster 9 (50-5,000 nM) or vehicle and DMXAA (5-10 μM; 2A-2B) or at 5,000 nM without DMXAA (2C-2D). Next, culture supernatants were collected and TNFα (2A, and 2C) or IL-10 (2B, and 2D) levels were determined by standard ELISA. In 2A-2B, black horizontal line indicates secretion level from vehicle-treated cells.
FIGS. 3A-3H include graphs and an image showing that compounds 2.1, 4.1, and 6.1 inhibit TNFα but promote IL-10 and IFN-beta secretion from DMXAA-activated splenocytes. Splenocytes were recovered from C57BL/6 WT female mice and incubated (1×10^6 cells in 0.5 mL of culture media) overnight with the individual compounds from cluster 1 (50-5,000 nM) or vehicle and DMXAA (10 μM; 3A, 3C, and 3E) or at 5,000 nM without DMXAA (3B, 3D, and 3F). Next, culture supernatants were collected and TNFα (3A-3B), IL-10 (3C-3D), or IFN-beta (3E-3F) levels were determined by standard ELISA. In 3A, 3C, and 3E, black horizontal line indicates secretion level from vehicle-treated cells. (3G-3H) Biased STING agonists (BiSTs) enhance DMXAA-induced STING signaling. Splenocytes were treated with 25 μg/ml DMXAA and 50 nM of compound 2.1 for 1-4 hr (3G). Then, the cells were analyzed by immunoblotting for phosphorylated STING, TBK-1, IRF3, and NF-kB, or their unphosphorylated controls, or actin as a loading control. Densitometry analysis for phosphorylated STING (p-STING) and STING proteins (3H) is also shown. Results are representative (3G) or mean±SEM (3H) from 3 repeats. One-way ANOVA, and Tukey HSD test *P<0.05.
Splenocytes were isolated from the spleens of unchallenged C57BL/6 WT or STING-KO mice by meshing against a grid. Peritoneal macrophages were isolated from mice undergoing peritonitis for 66 hr by washing with 5 ml PBS. The cellular exudate was stained with phycoerythrin (PE)-conjugated anti-F4/80 antibodies (bioLegend, CA, USA) and macrophages were isolated using magnetic beads (STEMCELL Technologies Inc, Vancouver, Canada). Isolated splenocytes or macrophages (0.5-1×10^6 cells per well) were incubated with 50-5,000 nM of individual substances or pooled clusters thereof. Then, the cells were treated with vehicle or 5-10 μM DMXAA (Cayman Chemical, MI, USA) to activate STING. After 24 hr, culture supernatants were collected and evaluated for levels of: TNFα, IFN-β and/or IL-10 using, standard ELISA (BioLegend, CA, USA).
To test which cluster(s) included compounds that modulate STING-mediated cytokine production, wild-type (WT) or STING knockout (−/−) splenocytes were incubated with the selective murine STING agonist DMXAA alone or with 5-500 nM of the pooled individual compounds in each cluster as indicated.
Next, the individual compounds in clusters 1 and 9 were tested at 50-5,000 nM. The first experiment was performed in resting splenocytes as detailed above.

[3] = individual compounds 50-5,000 nM + DMXAA 5-10 μM, overnight

T1 sequence (Q86WV6 whole entry H232R): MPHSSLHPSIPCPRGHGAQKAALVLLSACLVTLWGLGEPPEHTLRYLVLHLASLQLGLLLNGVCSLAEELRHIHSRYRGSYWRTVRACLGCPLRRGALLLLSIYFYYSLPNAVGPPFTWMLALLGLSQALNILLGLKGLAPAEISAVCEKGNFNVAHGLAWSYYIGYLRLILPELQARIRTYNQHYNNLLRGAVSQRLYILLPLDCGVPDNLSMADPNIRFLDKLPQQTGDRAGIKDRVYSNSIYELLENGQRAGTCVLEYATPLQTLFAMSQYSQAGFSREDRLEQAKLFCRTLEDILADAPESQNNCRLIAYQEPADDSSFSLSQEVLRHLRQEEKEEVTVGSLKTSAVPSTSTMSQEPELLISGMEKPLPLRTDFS

With `c1ccc(CSc2nnc(CCCCCCCCc3nnc(SCc4ccccc4)o3)o2)cc1` [Compound 2.1, 2-(benzylsulfanyl)-5-{8-[5-(benzylsulfanyl)-1,3,4-oxadiazol-2-yl]octyl}-1,3,4-oxadiazole] the “STING signaling (STING-IFN-β-RGS2 pathway proteins)” value (STING [1]; 2 hours) was “activates”, the “Cytokine expression (TNFα, IL-6, IL-10, IFN-β)” value (STING [1]; 8 hours) was “activates” and the “STING inhibition (ranking)” value (STING [2]; at 5,000 nM, resting splenocytes) was “Best STING Inhibitors”. The IFN-beta secretion (STING [2]; individual compounds 50-5,000 nM + DMXAA 10 μM, overnight) was “most potent inducer; also recorded: promote”, the IL-10 secretion (STING [2]; [3]) was “most potent inducer; also recorded: promote” and the TNFα secretion (STING [2]; [3]) was “doing so at lower concentrations; also recorded: inhibit”. For the same molecule, the “Mode of action on STING (overall)” value (STING [2]; summary over various cell types, DMXAA stimulation) was “biased agonists”.
